This is an account of results in a melting point compilation (Tetko et al.; mined from patent text by program, amines drawn as free bases though some values may be those of a salt).

Usually melting point stands for the temperature of the solid-liquid transition.

With `CSc1ccc(-c2ccc(=O)[nH]c2C)cc1`, the melting point lay in the range of 211 to 212 °C.

`Cc1cccc(-c2csc(N3C(=O)c4ccccc4C3=O)c2C(=O)O)c1`: the melting point is 195 °C.

Turning to `O=c1[nH]c(C=Cc2ccc([N+](=O)[O-])o2)nc2ccccc12`, the melting point stood at 327 °C.

`C(CSc1nnc(SCCCN2CCOCC2)s1)CN1CCOCC1` yielded a melting point of 65.5 to 66 °C.

As for `CC(C)n1nc(-c2sc(NC(=O)C3CCCCC3)nc2-c2ccccc2)ccc1=O`, the melting point fell in the range of 234 to 236 °C.

The compound `O=CNc1ccc([N+](=O)[O-])cc1` yielded a melting point of 195 to 199 °C.

Turning to `COC(=O)c1ccc(Cc2cccc3ccc(C(=O)NCC(C)C)cc23)c(OC)c1`, the melting point lay within 174 to 175 °C.

For the compound `CCOC(=O)CCc1cccc2c1Sc1cc(C#N)ccc1CC2`, the melting point was 61 to 62 °C.

Consider `Cc1ccc(N2CCOCC2)c(NC(N)=S)c1`, for which the melting point was in the range of 181 to 182 °C.

`OC(CNc1nnc2n1CCCC2)COc1cccc(CN2CCCCC2)c1` (stereo not given) had a melting point of 141 to 142 °C.

Compound `O=C(O)c1cnoc1-c1ccc(Cl)cc1Cl` gave a melting point of 122 to 123 °C.

`c1ccc(C2=NN=C(N3CCSCC3)SC2)cc1` yielded a melting point of 160 °C.

`CON(C)C(=O)c1cc(N)c(F)cc1Cl`: the melting point came out at 118 °C.

As to `N#CCCNC(=O)C1=CC(CF)(CF)Oc2ccc(C(F)(F)C(F)(F)C(F)(F)C(F)(F)F)cc21`, the melting point is 85 to 86 °C.

`Cc1[nH]c(=O)[nH]c1C(=O)CC(C)C` displayed a melting point of 232 to 233 °C.

In turn, `CC(C)(C)NC(=O)[C@@H]1[C@@H](Cl)CCN1C(=O)[C@@H](O)[C@H](Cc1ccccc1)NC(=O)[C@H](CC(N)=O)NC(=O)OCc1ccccc1` registered a melting point of 102 to 104 °C.

Compound `CCOCCn1c(NC2CCN(CCO)CC2)nc2cccnc21` displayed a melting point of 94.3 °C.

`COc1cc2ncnc(NS(=O)(=O)c3ccc(Br)cc3)c2cc1OC` came in with a melting point of 241 to 242 °C.

On to `COc1cc(C2=CCCCC2)c(Cl)cc1C(=O)N1Cc2ccc(C(=O)N(C)C[C@@H]3OC(=O)O[C@H]3[C@H](O)[C@H]3COC(=O)O3)n2Cc2ccccc21`, for which the melting point was 163 to 176 °C.

`OC[C@H]1CCc2cccc(O)c2O1` had a melting point of 131 to 132 °C.

With `CCOP(=O)(CC(Nc1cccnc1)c1cc(OC)c(O)c(OC)c1)OCC` (stereo not given), the melting point was in the range of 164 to 166 °C.

`CCCCCCCCCCCC#Cc1cnccc1C=C(C(=O)O)C(=O)O` registered a melting point of 175 to 177 °C.

In the case of `Cn1c(C(F)(F)F)cc(=O)n(-c2cc(OS(=O)(=O)c3ccc(Cl)cc3)c(Cl)cc2F)c1=O`, the melting point is 152 to 154 °C.

Regarding `COc1ccc(C=O)cc1OC(=O)CCl`, the melting point fell in the range of 88 to 89 °C.

Compound `CC(O)(c1cccc(Cl)c1)c1cc(Cl)ccc1O` (stereo not given) returned a melting point of 125 °C.

In turn, `O=C1OC(Cc2ccccc2)CN1Cc1ccccc1` (stereo not given) showed a melting point of 81 to 82 °C.

As for `Cc1ccc2c(N)c(C#N)sc2n1`, the melting point lay in the range of 241 to 242 °C.

Compound `COC(=O)CCCCc1cc2nc(Cl)ccc2n1S(=O)(=O)c1cc(C)cc(C)c1` came in with a melting point of 126 °C.

In turn, `O=C(O)C1=Cc2cc(Cl)ccc2N(Cc2ccc(Cl)cc2)C1C(F)(F)F` (stereo not given) had a melting point of 250 to 253 °C.

In the case of `C1=CC(c2ccccc2)(c2ccccc2)CCS1`, the melting point is 78 °C.

Compound `O=C1C(=C(O)C(F)(F)F)CCc2ccccc21` returned a melting point of 48 to 49 °C.

Consider `CC=CCNc1cc(C(=O)O)cc(S(N)(=O)=O)c1Nc1ccc(N)cc1`, for which the melting point came to 208 °C.

Turning to `CCCC(=O)c1cnc2c(OC)cccc2c1Nc1sccc1C`, the melting point lay in the range of 132 to 133 °C.

`COC(=O)CCCc1ccc(OCCN(C)c2nc3ccccc3o2)cc1`: the melting point fell in the range of 117 to 119 °C.

Turning to `CCC(CO)Nc1cc(C)nc(Oc2c(C)cc(Cl)cc2C)c1C(=O)OC` (stereo not given), the melting point fell in the range of 122 to 124 °C.

In the case of `CCOC(=O)/C(=N\OCC1CCCCC1)c1csc(N)n1`, the melting point lay within 107 to 108 °C.

With `CSCc1cnc2c(C)cccc2c1O`, the melting point lay within 226 to 228 °C.

For `NC(=O)c1ccc(OCCN(Cc2ccccc2)CC(O)c2ccc(OCc3ccccc3)c(OCc3ccccc3)c2)cc1` (stereo not given), the melting point lay in the range of 110 to 111 °C.

As to `CC(C)(C(=O)OCc1ccccc1)N1COC(CO)=C(c2ccccc2)C1=O`, the melting point lay within 115 to 116 °C.

In turn, `COc1ccc(CCC(=O)Nc2cc3c(c(C)c2C)OC(C)(C)C3c2ccc(C)cc2)cc1` (stereo not given) displayed a melting point of 149 to 150 °C.

Consider `Cc1ccc(C2=NNC(=O)CC2)cc1O`, for which the melting point is 216 to 218 °C.

`CC(C)(C)c1ccc(C(=O)N[C@H]2CC[C@H](CCN3CCN(c4nccc5c4OCC5)CC3)CC2)cc1` yielded a melting point of 183 °C.

Take `CN1CCc2c(c3ccccc3n2CCc2n[nH]c(=S)n2C)C1`: the melting point is 216 to 219 °C.

`COC(=O)CCCc1cc2nc(Cl)ccc2n1S(=O)(=O)c1cccc(C(C)C)c1` showed a melting point of 92 °C.

For the compound `COC(=O)c1ccc(C#CC(O)c2cc(C(C)(C)C)c(OCOCC[Si](C)(C)C)c(C(C)(C)C)c2)cc1` (stereo not given), the melting point lay within 91 to 92 °C.

The compound `O=C1Nc2ccccc2C(c2ccccc2)N1C1CCN(Cc2cccc(OC(F)(F)F)c2)CC1` (single isomer, unassigned; (+)) gave a melting point of 195 to 198 °C.

The compound `Cc1cc2c(c(C)c1N)C(c1ccc(C(C)C)cc1)CS2` (stereo not given) displayed a melting point of 121 to 122 °C.

`CSc1nnc2c(=O)c3ccc(Cl)cc3ccn12` returned a melting point of 254 to 255 °C.

As for `O=C1c2cc(F)ccc2S(=O)(=O)c2cc(C3=NCCN3)ccc21`, the melting point lay in the range of 248 to 249 °C.

In turn, `CN1C(=O)NC2(CCCCC2)C1=O` had a melting point of 214 to 215 °C.

Consider `Cc1cn(Nc2ccncc2F)c2ccc(OCc3ccccc3)cc12`, for which the melting point lay in the range of 210 to 213 °C.

With `O=C(O)C(=O)Nc1ccc2c(=O)c3c(oc2c1)C(=Cc1ccccc1)CC3`, the melting point was 253 to 256 °C.

With `O=C1NC(=S)SC1=Cc1c(F)c(F)c(F)c(F)c1F`, the melting point fell in the range of 132 to 135 °C.

For the compound `CC(C)(C)OC(=O)CCOCCc1cccc(-c2nc(=O)c3ccccc3s2)n1`, the melting point lay in the range of 67.7 to 68.5 °C.

Compound `Cc1nn(C)c2cc(-c3ccc(F)cc3)nc(-c3ccc4c(c3)OCO4)c12` showed a melting point of 166 to 168 °C.

Regarding `C=CC(=O)OCc1cn(CCCCCCCCCCCC)nn1`, the melting point is 50 to 52 °C.

The compound `O=CN(O)C(CS(=O)(=O)c1ccc(-c2ccc(C(F)(F)F)cc2)cc1)c1ccccn1` (stereo not given) returned a melting point of 168 to 169 °C.

Regarding `CCOC(=O)CC[C@H](NC(=O)c1ccc(C#Cc2cnc3nc(NC(=O)C(C)(C)C)nc(O)c3c2)cc1)C(=O)OCC`, the melting point is greater than 250 °C.

In turn, `BrCCCOc1ccc(OCCCBr)cc1` returned a melting point of 78 to 80 °C.

`Cc1cccc(-c2ccnc3c(C(=O)N=CN(C)C)cnn23)c1` yielded a melting point of 165 to 166 °C.

In turn, `COC(=O)COc1cc(Cl)c(SCc2cc(-c3ccc(C(F)(F)F)cc3)on2)cc1C` registered a melting point of 120 to 121 °C.

Consider `Nc1cccc(O)c1Cl`, for which the melting point turned out to be 153 °C.

Consider `CCSc1cn(C(C)C(=O)N(C)C)nc1-c1ccccc1` (stereo not given), for which the melting point lay in the range of 70 to 72 °C.

In the case of `CCCCc1nc2c(N)nc3cccnc3c2n1CCCCN`, the melting point was 212 to 213 °C.

In the case of `CCC1CC(C)C(=O)C=C1c1ccc(OCC(=O)O)c(Cl)c1Cl` (stereo not given), the melting point lay within 99 to 100 °C.

As for `O=C1NC(=S)C(=Cc2cc(O)c(O)c([N+](=O)[O-])c2)O1`, the melting point was found to be 245 °C.

The compound `O=C(c1ccc(C(F)(F)F)cc1)N1CCC(Cc2ccc(C3=NCCO3)cc2)CC1` registered a melting point of 115 °C.

Regarding `COc1ccc(C=C2CCc3c2nc2ccc(C)cn2c3=O)cc1`, the melting point fell in the range of 210 to 211 °C.

`COCC1CCCN1CCC1CCN(c2nc(=O)c3c(C)c(OC)c(OC)cc3[nH]2)CC1` (stereo not given) came in with a melting point of 83.1 to 111 °C.

`COC(COC(=O)C1=C(C)NC2=C(C(=O)CN(Cc3ccccc3)C2)C1c1c(F)c(F)c(F)c(F)c1F)c1ccccc1` (stereo not given) had a melting point of 220 to 222 °C.

The compound `CS(=O)(=O)Nc1ccc2c(c1)S(=O)(=O)NC1CCCN21` (stereo not given) yielded a melting point of 177 to 180 °C.

`CC(CCCC(O)(C(F)(F)F)C(F)(F)F)C1CCC2C3C=CC4=CC(=O)C5OC5C4(C)C3CCC12C` (stereo not given) showed a melting point of 181 to 184 °C.

Compound `CNC(=C[N+](=O)[O-])NCc1cccnc1` returned a melting point of 159 to 160 °C.

`CCC(=O)N1CCN(C(=O)OC2C3=C(SCC(OC)CS3)C(=O)N2c2ccc(Cl)cn2)CC1` (stereo not given) showed a melting point of 160 °C.

`CC(C)Cn1c(=O)[nH]c(=O)c2cc(Cc3cccc4ccccc34)sc21` yielded a melting point of 189 to 190 °C.

As for `CN(Cc1ccccc1)[C@H](Cc1c[nH]c2ccccc12)c1nc(-c2ccccc2)c[nH]1`, the melting point was in the range of 110 to 112 °C.

Regarding `O=C(O)CCCCCc1cccnc1`, the melting point was in the range of 100 to 105 °C.

In the case of `COc1ccc(CNS(=O)(=O)Cc2ccc3[nH]cc(CC#N)c3c2)cc1`, the melting point lay in the range of 144 to 145 °C.

`O=C(COc1ccccc1)NC1C(=O)N2C1SCN(O)C2C(=O)OCc1ccccc1` (stereo not given) returned a melting point of 184 to 186 °C.

`COc1ccc(C=Cc2nc3c(OC)c(C)c(C)c(OC)c3[nH]2)cc1OC` registered a melting point of 116 to 119 °C.

The compound `C#CCn1c(-c2ccccc2)nc(C#C)c(CC)c1=O` gave a melting point of 134 to 136 °C.

For the compound `Fc1cccc2cc3cccc(F)c3nc12`, the melting point fell in the range of 193 to 195 °C.

For `c1ccc(-c2ccc(-c3cn([C@H]4CN5CCC4CC5)nn3)s2)cc1`, the melting point was 184 °C.

On to `C#CCOc1ccc(CC(=O)O)cc1[N+](=O)[O-]`, for which the melting point fell in the range of 135 to 137 °C.

With `CS(=O)(=O)c1ccc(-c2cnn(-c3csc4ccccc34)c(=O)c2-c2ccc(F)cc2)cc1`, the melting point is 265 to 267 °C.

Regarding `Cc1nc(-c2ccc(S(C)(=O)=O)cc2)c(-c2ccc(-c3cscn3)cc2)s1`, the melting point was 194 °C.

Compound `Cn1ccnc1N1CCN(c2ccc([N+](=O)[O-])cc2)CC1` yielded a melting point of 193 to 194 °C.

For the compound `COn1c(-c2ccccc2)nc2ccc(Cn3ccnc3)cc21`, the melting point is 142 °C.

Consider `CCOC(=O)c1cnn(C)c1C(=O)Nc1ccc2nc(N(C)C)nn2c1`, for which the melting point stood at 194 °C.

Consider `N#Cc1ccc(N2CCN(CCC3CCc4ccccc43)CC2)cc1` (stereo not given), for which the melting point was 157 to 158 °C.
